Measured values taken from patent publication US10377731B2, “Compositions and methods for cancer treatment” (Boston Biomedical, Inc., priority 2007, dated 2019).
“Also recorded” adds a separate entry of the source.

Columns and labels:
CD44high CSCs (FaDu) = test: Sphere assay (CSC spherogenesis); assay type: cell-based, human; details: FACS-isolated CD44high CSCs grown as spheres for 72 hours before challenge
Method: CD44^high cells were isolated by FACS according to the methods described in Ponti et al, with slight modification. Briefly, after trypsinization and recovery of cells for 30 minutes at 37° C. in growth media, cells were pelleted at 400×g and were resuspended in PBS with 2% FBS and 1 mM EDTA at 1×10^6 cells/mL. Cells were then incubated on ice with a 1:100 dilution of CD44-FITC (BD Biosicences, San Diego, Calif.) for 15 minutes. Alternatively, CD24-PE (BD Bioscences, San Diego, Calif.) (1:100) was utilized for negative selection. After washing three times, cells were resuspended at 2×10^6/mL and passed through a […] mesh before sorting
Sphere assay: A reliable method of measuring the self-renewal capacity of cell population if the ability to be cultured as spheres in the absence of serum or attachment. CD44^high FaDu or Hoechst side population cancer stem cells were cultured in ultra low attachment plates in cancer stem cell media (DMEM/F12, B27 Neurobasal supplement, 20 ng/ml EGF, 10 ng/ml FGF, 4 μg/ml insulin, and 0.4% BSA) to allow spheres formation. Typically, sphere formation was evaluated by microscopy after 10-14 days in culture and spheres with >50 cells were scored.
Identification of compounds that inhibit CSC spherogenesis in vitro. One of the hallmarks of cancer stem cells is their ability to self-renew. A reliable method of measuring the self-renewal capacity of cell populations is the ability to be cultured as spheres in the absence of serum or attachment. To compare the ability of compound 401 to other targeted and chemotherapeutic agents, FACS-isolated CD44^high CSCs were grown as spheres for 72 hours before being challenged with a panel of therapeutic agents. […] Tarceva, Sutent, and Gleevec were added at approximately three times their reported therapeutic concentrations.

[1] = system: Paca2 human pancreatic cancer cells; test: Colony formation, Paca2 cells, single drugs and combinations; assay type: cell-based; details: Homo sapiens, read-out: Compound 401 (% Inhibition)
Method: Paca2 human pancreatic cancer cells, A549 human lung cancer cells, and HepG2 human liver cancer cells (American Type Culture Collection) were cultured in Dulbecco's modified Eagle's medium containing 10% fetal bovine serum, 100 units/mL penicillin, 100 μg/mL streptomycin, and 2 mM L-glutamine. […] Erlotinib was from American Custom Chemicals (San Diego, Calif.). Gemcitabine was from Eli Lilly (Indianapolis, Ind.) in an aqueous 20 mM stock solution. Sorafenib was Mass.). Unless otherwise noted all compounds were solubilized in DMSO at 10 mM and aliquoted at −20° C. Exponentially growing Paca2 pancreatic cancer cells were seeded at 1,000 cells per well in 6-well plates and allowed to attach for 24 hours. Increasing concentrations of individual drugs and those in combination were then added to the media for another 24 hours. After 24 hours exposure, the drug was removed and fresh media was added for the next 10-14 days, allowing for colony formation. Cells were fixed and stained with GIEMSA (Gibco BRL). […] Results are an average of duplicate experiments. Alternatively, MTT assays were performed 72 hours post-treatment in A549 and HepG2 cells.

Stat3 = Stat3 DNA binding assay (EMSA), HeLa nuclear extract; assay type: biochemical; details: HeLa nuclear extract with constitutively activated Stat3
Method: STAT3 DNA Binding Assay: Electrophoretic mobility shift assay (EMSA) was performed as described by the manufacturer (Li-Cor Biosciences, Lincoln, Nebr.). Briefly, nuclear extracts were made from HeLa cells using the NucBuster Protein Extraction Kit as described by the manufacturer (EMD Biosciences, San Diego, Calif.). 5 μg of nuclear extract was pre-incubated with the indicated dose of indicated compound for 30 minutes prior to a 15-minute incubation with the IR700-labeled consensus Stat3 oligonucleotide. Samples were then electrophoresed on a polyacrylamide gel and directly scanned using the Odyssey infrared imaging system (Li-Cor Biosciences). For the enzyme-linked immunosorbent assay (ELISA), 5 μg of nuclear extract was preincubated with indicated concentration of indicated compound for 30 minutes prior to the addition of biotinylated oligo (5′-Biotin-[…]-3′ SEQ ID NO. 1). Stat3-DNA complexes were then captured on streptavidin coated 96 well plates (Pierce, Rockford, Ill.). Bound complexes were then incubated with Stat3 polyclonal antibody (Santa Cruz Biotechnology, Santa Cruz, Calif.) followed by anti-rabbit HRP conjugated secondary antibody (GE Healthcare, Pittsburgh, Pa.). Bound antibody was then visualized by addition of TMB substrate (Pierce) and absorbance measured at 450 nm.
Inhibition of Stat3 DNA-binding activity. Nuclear extracts from HeLa cells, which contain constitutively activated Stat3 as detected by phosphorylation at the tyrosine 705 residue, were used to perform Stat3 EMSAs to monitor Stat3 DNA binding activity. Nuclear extracts were incubated with indicated compound prior to incubation with IR700-labeled Stat3 consensus oligonucleotide. Binding of Stat3 to the oligonucleotide was monitored by gel electrophoresis and detection using a LiCor Odyssey infrared scanner.

`CC(=O)c1cc2c(o1)C(=O)c1ccccc1C2=O` [Compound 401, 2-acetylnaphtho[2,3-b]furan-4,9-dione] was tested, and the “Effect on CSC sphere proliferation / formation” value (CD44high CSCs (FaDu)) was “effective at preventing sphere proliferation; also recorded: blocks”, the inhibition at 0.066 µM ([1]; PaCa-2, 401 alone 66 nM) was 32% and the inhibition at 0.133 µM ([1]; PaCa-2, 401 alone 133 nM) was 66%. The “Inhibition of Stat3 DNA-binding activity (in words)” value (Stat3) was “Dose dependent inhibition; also recorded: can inhibit”.
